Results from US20240074990A1 (priority 2022, published 2024).
Several values for one entry are separate records, joined by “and”; a condition that tells them apart may be missing. Equal values may be shown once. Entries after “also recorded” stand apart in the source; their conditions may differ. Read-outs that look alike come from different tables or passages of the source.

Tests used:
SARS-CoV 3CL protease = SARS-CoV 3CL protease (Severe acute respiratory syndrome coronavirus, UniProt P0C6X7); test: biochemical; details: for IC50: FRET, three parallel tests; for inhibitory activity on SARS-CoV 3CL proteases (in words): statement in words
SARS-CoV-2 3CL protease = SARS-CoV-2 3CL protease (Severe acute respiratory syndrome coronavirus 2, UniProt P0DTD1); test: In-vitro enzyme activity inhibition test on SARS-CoV-2 3CL protease (fluorescence resonance energy transfer method); assay type: biochemical; details: for inhibitory activity on SARS-CoV-2 3CL proteases (in words): statement in words
[1] = 1 μM compound, parallel tests 1, 2, 3, 1 µM
[2] = 5 μM compound, parallel tests 1, 2, 3, 5 µM
[3] = 10 μM compound, parallel tests 1, 2, 3, 10 µM
[4] = 20 μM compound, parallel tests 1, 2, 3, 20 µM
[5] = 30 μM compound, parallel tests 1, 2, 3, 30 µM
[6] = 50 μM compound, parallel tests 1, 2, 3, 50 µM
[7] = 100 μM compound, parallel tests 1, 2, 3, 100 µM
[8] = IC50, SARS-CoV-2 3CL protease, FRET, three parallel tests
[9] = 0.1 μM compound, parallel tests 1, 2, 3, 0.1 µM
[10] = 0.5 μM compound, parallel tests 1, 2, 3, 0.5 µM
[11] = read-out: inhibition percentage, 1 μM compound, parallel tests 1, 2, 3
[12] = read-out: inhibition percentage, 5 μM compound, parallel tests 1, 2, 3
[13] = read-out: inhibition percentage, 10 μM compound, parallel tests 1, 2, 3
[14] = read-out: inhibition percentage, 20 μM compound, parallel tests 1, 2, 3
[15] = read-out: inhibition percentage, 30 μM compound, parallel tests 1, 2, 3
[16] = read-out: inhibition percentage, 50 μM compound, parallel tests 1, 2, 3
[17] = read-out: inhibition percentage, 100 μM compound, parallel tests 1, 2, 3

Row | Compound | inhibition percentage (SARS-CoV 3CL protease; [1]) | inhibition percentage (SARS-CoV 3CL protease; [2]) | inhibition percentage (SARS-CoV 3CL protease; [3]) | inhibition percentage (SARS-CoV 3CL protease; [4]) | inhibition percentage (SARS-CoV 3CL protease; [5]) | inhibition percentage (SARS-CoV 3CL protease; [6]) | inhibition percentage (SARS-CoV 3CL protease; [7]) | IC50 (SARS-CoV 3CL protease; IC50, SARS-CoV 3CL protease) | inhibitory activity on SARS-CoV 3CL proteases (in words) (SARS-CoV 3CL protease) | inhibition percentage (SARS-CoV-2 3CL protease; [1]) | inhibition percentage (SARS-CoV-2 3CL protease; [2]) | inhibition percentage (SARS-CoV-2 3CL protease; [3]) | inhibition percentage (SARS-CoV-2 3CL protease; [4]) | inhibition percentage (SARS-CoV-2 3CL protease; [5]) | inhibition percentage (SARS-CoV-2 3CL protease; [6]) | inhibition percentage (SARS-CoV-2 3CL protease; [7]) | IC50 (SARS-CoV-2 3CL protease; [8]) | inhibitory activity on SARS-CoV-2 3CL proteases (in words) (SARS-CoV-2 3CL protease) | other results
1 | Cc1cc2c(C(C)C)c(O)c(O)c(C=O)c2c(O)c1-c1c(C)cc2c(C(C)C)c(O)c(O)c(C=O)c2c1O (single isomer, unassigned) [(+)- gossypol, (+)-gossypol] | 3.96 and 4.54 and 5.87 | 11.58 and 9.88 and 13.43 | 19.12 and 16.53 and 20.66 | 22.9 and 26.42 and 30.76 | 28.14 and 30.43 and 38.33 | 45.56 and 48.42 and 51.33 | 72.33 and 62.28 and 74.43 | 51.6 ± 1.71 µM | all have inhibitory activity | 2.45 and 3.18 and 3.87 | 5.69 and 7.88 and 9.54 | 9.43 and 11.87 and 14.87 | 18.73 and 20.90 and 22.44 | 25.21 and 28.43 and 29.13 | 36.55 and 40.32 and 38.72 | 58.34 and 61.83 and 55.88 | 75.2 ± 1.88 µM | all have inhibitory activity | 
2 | Cc1cc2c(C(C)C)c(O)c(O)c(C=O)c2c(O)c1-c1c(C)cc2c(C(C)C)c(O)c(O)c(C=O)c2c1O (single isomer, unassigned) [(−)- gossypol, (−)-gossypol] | 43.78 and 40.92 and 50.01 | 64.32 and 58.9 and 67.22 | 77.32 and 72.54 and 73.76 | 86.43 and 78.13 and 85.43 | 91.83 and 87.54 and 90.32 | 98.42 and 92.10 and 97.54 | 99.74 and 98.12 and 99.53 | 1.79 µM and < 10 µM | all have inhibitory activity; also recorded: excellent inhibitory activity | 31.43 and 32.87 and 34.65 | 52.19 and 48.98 and 56.91 | 71.90 and 65.43 and 69.78 | 82.54 and 75.44 and 83.47 | 90.45 and 83.21 and 91.45 | 96.88 and 90.68 and 95.87 | 99.23 and 96.73 and 98.44 | < 10 µM | all have inhibitory activity; also recorded: excellent inhibitory activity | inhibition percentage (SARS-CoV 3CL protease; [9]): 13.11 and 10.83 and 15.87; inhibition percentage (SARS-CoV 3CL protease; [10]): 24.54 and 21.88 and 30.26; inhibition percentage (SARS-CoV-2 3CL protease; [9]): 12.83 and 10.83 and 14.77; inhibition percentage (SARS-CoV-2 3CL protease; [10]): 20.99 and 19.88 and 22.88; IC50 (SARS-CoV-2 3CL protease; IC50): 2.97 ± 0.473 µM
3 | CC(=O)O.Cc1cc2c(C(C)C)c(O)c(O)c(C=O)c2c(O)c1-c1c(C)cc2c(C(C)C)c(O)c(O)c(C=O)c2c1O [Acetate gossypol, acetate gossypol] | 26.61 and 19.97 and 32.84 | 41.15 and 36.26 and 45.91 | 62.48 and 52.56 and 65.81 | 75.14 and 65.81 and 78.97 | 86.61 and 76.15 and 87.62 | 93.52 and 85.63 and 94.62 | 97.81 and 91.32 and 98.71 |  | all have inhibitory activity; also recorded: excellent inhibitory activity | 24.71 and 17.94 and 30.17 | 37.81 and 34.61 and 43.51 | 59.14 and 50.87 and 63.21 | 72.87 and 63.41 and 76.32 | 85.31 and 73.94 and 84.81 | 90.17 and 82.76 and 91.83 | 95.41 and 89.67 and 97.16 |  | all have inhibitory activity; also recorded: excellent inhibitory activity | IC50 (SARS-CoV 3CL protease; SARS-CoV 3CL protease, read-out: IC50): 5.16 ± 0.712 µM; IC50 (SARS-CoV-2 3CL protease; SARS-CoV-2 3CL protease, FRET, three parallel tests, read-out: IC50): 6.09 ± 0.784 µM
4 | Cc1cc2c(C(C)C)c(O)c(O)c(C=O)c2c(O)c1-c1c(C)cc2c(C(C)C)c(O)c(O)c(C=O)c2c1O [Gossypol, gossypol] | 18.54 and 31.50 | 35.68 and 44.78 | 51.33 and 64.31 | 64.56 and 77.58 | 75.44 and 86.42 | 84.12 and 93.41 | 90.09 and 98.44 | 5.43 ± 0.734 µM | all have inhibitory activity; also recorded: excellent inhibitory activity | 16.13 and 28.41 | 33.24 and 41.67 | 49.17 and 61.32 | 61.34 and 74.52 | 72.15 and 83.12 | 81.17 and 90.16 | 87.84 and 95.27 | 6.91 ± 0.839 µM | all have inhibitory activity; also recorded: excellent inhibitory activity | inhibition at 1 µM (SARS-CoV 3CL protease; [11]): 25.6%; inhibition at 5 µM (SARS-CoV 3CL protease; [12]): 40.4%; inhibition at 10 µM (SARS-CoV 3CL protease; [13]): 61.2%; inhibition at 20 µM (SARS-CoV 3CL protease; [14]): 75%; inhibition at 30 µM (SARS-CoV 3CL protease; [15]): 85.1%; inhibition at 50 µM (SARS-CoV 3CL protease; [16]): 92.1%; inhibition at 100 µM (SARS-CoV 3CL protease; [17]): 96.3%; inhibition at 1 µM (SARS-CoV-2 3CL protease; [11]): 22.9%; inhibition at 5 µM (SARS-CoV-2 3CL protease; [12]): 36.2%; inhibition at 10 µM (SARS-CoV-2 3CL protease; [13]): 57.4%; inhibition at 20 µM (SARS-CoV-2 3CL protease; [14]): 71.2%; inhibition at 30 µM (SARS-CoV-2 3CL protease; [15]): 83.7%; inhibition at 50 µM (SARS-CoV-2 3CL protease; [16]): 88.4%; inhibition at 100 µM (SARS-CoV-2 3CL protease; [17]): 93.2%
